Measured values published in article PMC9056950, “Synthesis and biochemical evaluation of cephalosporin analogues equipped with chemical tethers” (RSC Advances, 2020).
In brackets after ≈: the same amount, converted by molar mass.

Columns and labels:
S. aureus (NCTC 6571) = tested on: T1, S. aureus (NCTC 6571); assay: microbe, parasite or virus in culture; design: minimum bactericidal concentration 50 on agar plates; conditions: Staphylococcus aureus, NCTC6571; read-out: MBC50 S. aureus (NCTC 6571)
T1 construct: NCTC 6571

PBP3 [1] = molecular target: T2, PBP3 (Escherichia coli, UniProt P0AD68); assay: biochemical; design: Thermal shift assay, Protein Thermal Shift dye, 3 uM E. coli PBP3, change in melting temperature; conditions: read-out: Average DTm/°C
T2 construct: gene ftsI
T2 sequence (P0AD68 44-588): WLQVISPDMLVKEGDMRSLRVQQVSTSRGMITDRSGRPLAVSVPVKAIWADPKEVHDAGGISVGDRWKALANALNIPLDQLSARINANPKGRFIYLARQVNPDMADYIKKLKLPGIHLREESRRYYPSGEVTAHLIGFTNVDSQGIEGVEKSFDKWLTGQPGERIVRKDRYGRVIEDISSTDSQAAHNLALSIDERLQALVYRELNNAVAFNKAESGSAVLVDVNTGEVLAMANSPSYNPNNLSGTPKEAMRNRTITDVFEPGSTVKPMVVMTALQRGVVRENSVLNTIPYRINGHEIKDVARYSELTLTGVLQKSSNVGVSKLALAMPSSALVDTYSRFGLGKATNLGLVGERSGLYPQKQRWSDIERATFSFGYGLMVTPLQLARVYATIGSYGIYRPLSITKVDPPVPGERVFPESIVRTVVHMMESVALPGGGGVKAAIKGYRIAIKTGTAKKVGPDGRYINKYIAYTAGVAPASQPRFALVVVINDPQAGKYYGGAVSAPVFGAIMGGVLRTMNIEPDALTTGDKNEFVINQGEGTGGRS
Procedure: The thermal shift assay was carried out using the Protein Thermal Shift™ assay kit (Applied Biosystems). 3 μM of purified E. coli PBP3 was incubated with the β-lactam analogues at 300 μM concentration in a mixture containing the Protein Thermal Shift™ Dye. The samples were then heated in a StepOnePlus™ Real-Time PCR System from 25 to 95 °C at a rate of 1 °C min^−1. Tests were carried out in triplicate and the averages plotted as the negative first derivative vs. temperature. Reference wells, i.e. solutions consisting only of only PBP3 with dye, PBP3 only, and dye only, were used as controls. Melting temperature (Tm) values were determined with and without each compound, and the change in melting temperature (ΔTm) was obtained, Fig. 2. The thermal shift assay with PBP4 was carried out using the protocol described for PBP3, with the follow deriviatisation: 500 nM of purified Bacillus subtilis PBP4 was incubated with 50 μM of the β-lactam analogues. A thermal shift assay was used to investigate the binding of the cephalexin analogues to the therapeutic target, PBP, in vitro. This assay provides a fast and inexpensive method of detecting a ligand binding to a protein of interest. Briefly, the protein is gradually heated in the presence of a fluorescent dye that binds non-specifically to the hydrophobic surfaces. […] A change in the melting temperature (Tm) when the protein is heated in the presence of a ligand, indicates a protein–ligand interaction. […] The PBPs can be divided into two main categories: high molecular mass (HMM) and low molecular mass (LMM).[13] PBP3 was chosen as a representative HMM PBP, and PBP4 as a representative LMM PBP. Cephalexin (1) has been previously reported to show good binding affinities for both PBP3 and PBP4.[14] Penicillin (11) and cefpodoxime (12) were included as positive controls. A truncated version of the ftsI gene formed of residues W44-S588, encoding only the soluble domain, was amplified from E. coli BW25113. The resulting construct was inserted into the vector pBADnLIC2005,[40] introducing an N-terminal deca-histidine tag when expressed. The resulting vector was transformed into E. coli MC1061 for expression. Cultures for protein expression were grown in 1 L of Luria–Bertani (LB) broth at 37 °C on an orbital shaker. Expression was induced by addition of 0.01% L-arabinose during mid-log phase of growth. Cultures were further incubated for 16 h at 20 °C, then the cells were harvested by centrifugation. Cell pellets were resuspended in 50 mM KPi pH 7.8, 200 mM NaCl, 10 mM imidazole, 20% glycerol with 1 mM [compound left out] followed by sonication. The lysate was clarified by centrifugation before loading onto a HisTrap HF column (GE Healthcare). To remove any pre-bound ligands, refolding purification was performed by initially washing with the protein unfolding buffer [2 M guanidine HCl, 50 mM KPi (pH 7.8), 200 mM NaCl, 20% glycerol, and 20 mM imidazole] and then performing a gradient wash to the protein refolding buffer [50 mM KPi (pH 7.8), 200 mM NaCl, 20% glycerol, and 20 mM imidazole] before the elution of the protein using the elution buffer [50 mM KPi (pH 7.8), 200 mM NaCl, 20% glycerol, and 500 mM imidazole]. The eluted protein was buffer-exchanged to the buffer 50 mM KPi (pH 7.8), 200 mM NaCl using a HisTrap Desalting (GE Healthcare) column.

PBP3 [2] = molecular target: T2, PBP3; assay: thermal shift (Protein Thermal Shift dye); type: binding; conditions: 3 μM PBP3, 300 μM ligand, 25-95 °C at 1 °C/min; Tm increased
E. coli = tested on: T3, E. coli; design: species or system Escherichia coli BW25113; broth growth inhibition, OD600, fitted MIC from dose curve, LB, 37 C; conditions: 16 h; inhibitor
T3 construct: BW25113
Procedure: Stock solutions of each compound were prepared in 50% DMSO/water at ×100 the final concentration. In a 96-well plate, 2 μL of the test compounds were added to each well. Each plate included the positive control (750 μg mL^−1 chloramphenicol), the negative control (50% DMSO/water) and media only wells. To each test well was then added 198 μL of the required bacteria stock (OD 0.05). E. coli assays were carried out using LB broth, S. aureus were carried out using tryptic soy broth (TSB). Plates were incubated at 37 °C and the OD600 was measured (Epoch 2 Microplate Spectrophotometer, BioTek) every 30 min over a 17 h period. Tests were carried out in triplicate, the background absorbance was removed using reference wells, and the averages were determined. Dose curves were plotting using the OD600 after 16 h growth vs. compound concentration. MICs were defined as the minimum concentration of compound at which no significant growth was observed after 16 h incubation. MIC values were determined using GraphPad Prism (version 8.3.0). […] Further testing was carried out […] to determine whether the tethered compounds had any antibacterial activity. Table 2 summarises the MIC values determined for 1–12, MBC50 data is included in the ESI. ^†

PBP3 [3] = molecular target: T2, PBP3; assay: thermal shift, ligand titration; type: binding; conditions: 2 μM PBP3, 25 min at room temperature before melt 35-70 °C; approximate affinity, not a Kd

equivalents required for >Tm1/2 (PBP3 [3])	SMILES	MBC (S. aureus (NCTC 6571))	ΔTm at 300 µM (PBP3 [1])	ΔTm (PBP3 [2])	MIC (E. coli, best-fit) (E. coli)
–	CC1=C(C(=O)O)N2C(=O)[C@@H](NC(=O)[C@H](NC(=O)COCC(=O)NCCOCCOCCOCCOCCNC(=O)CCCCCN3C(=O)C=CC3=O)c3ccccc3)[C@H]2SC1 [compound 2, (6R,7R)-7-((R)-30-(2,5-Dioxo-2,5-dihydro-1H-pyrrol-1-yl)-4,8,25-trioxo-2-phenyl-6,12,15,18,21-pentaoxa-3,9,24-triazatriacontanamido)-3-methyl-8-oxo-5-thia-1-azabicyclo[4.2.0]oct-2-ene-2-carboxylic acid]	200 µM (≈ 175 µg/mL)	4.72 °C	all of the analogues tested caused an increase in the Tm with PBP3	–
–	CC1=C(C(=O)O)N2C(=O)[C@@H](NC(=O)[C@H](NC(=O)OC(C)(C)C)c3ccccc3)[C@H]2SC1 [compound 9, (6R,7R)-7-[(2R)-2-{[(Tert-butoxy)carbonyl]amino}-2-phenylacetamido]-3-methyl-8-oxo-5-thia-1-azabicyclo[4.2.0]oct-2-ene-2-carboxylic acid]	50 µM (≈ 22.4 µg/mL)	1.61 °C	all of the analogues tested caused an increase in the Tm with PBP3	–
–	CC1=C(C(=O)O)N2C(=O)[C@@H](NC(=O)[C@H](NC(=O)CCCC(=O)O)c3ccccc3)[C@H]2SC1 [compound 7, (6R,7R)-7-[(2R)-2-(4-Carboxybutanamido)-2-phenylacetamido]-3-methyl-8-oxo-5-thia-1-azabicyclo[4.2.0]oct-2-ene-2-carboxylic acid]	200 µM (≈ 92.3 µg/mL)	3.6 °C	all of the analogues tested caused an increase in the Tm with PBP3	–
–	CC1=C(C(=O)O)N2C(=O)[C@@H](NC(=O)[C@H](NC(=O)CCCCC3CCSS3)c3ccccc3)[C@H]2SC1 (stereo partly drawn) [compound 5, (6R,7R)-7-[(2R)-2-[5-(1,2-Dithiolan-3-yl)pentanamido]-2-phenylacetamido]-3-methyl-8-oxo-5-thia-1-azabicyclo[4.2.0]oct-2-ene-2-carboxylic acid]	50 µM (≈ 26.8 µg/mL)	3.01 °C	all of the analogues tested caused an increase in the Tm with PBP3	–
–	CC(=O)N[C@@H](C(=O)N[C@@H]1C(=O)N2C(C(=O)O)=C(C)CS[C@H]12)c1ccccc1 [compound 8, (6R,7R)-7-[(2R)-2-Acetamido-2-phenylacetamido]-3-methyl-8-oxo-5-thia-1-azabicyclo[4.2.0]oct-2-ene-2-carboxylic acid]	200 µM (≈ 77.9 µg/mL)	3.01 °C	all of the analogues tested caused an increase in the Tm with PBP3	–
–	C#CCCC(=O)N[C@@H](C(=O)N[C@@H]1C(=O)N2C(C(=O)O)=C(C)CS[C@H]12)c1ccccc1 [compound 4, (6R,7R)-3-Methyl-8-oxo-7-[(2R)-2-(pent-4-ynamido)-2-phenylacetamido]-5-thia-1-azabicyclo[4.2.0]oct-2-ene-2-carboxylic acid]	50 µM (≈ 21.4 µg/mL)	3.01 °C	all of the analogues tested caused an increase in the Tm with PBP3	–
–	CC1=C(C(=O)O)N2C(=O)[C@@H](NC(=O)[C@H](NC(=O)CCCCCN3C(=O)C=CC3=O)c3ccccc3)[C@H]2SC1 [compound 3, (6R,7R)-7-((R)-2-(6-(2,5-dioxo-2,5-dihyrdo-1H-pyrrol-1-yl)hexanamido)-2-phenylacetamido)-3-methyl-8-oxo-5-thia-1-azabicyclo[4.2.0]oct-2-ene-2-carboxylic acid]	200 µM (≈ 108 µg/mL)	3 °C	all of the analogues tested caused an increase in the Tm with PBP3	–
–	COCC1=C(C(=O)O)N2C(=O)[C@@H](NC(=O)/C(=N\OC)c3csc(N)n3)[C@H]2SC1 [compound 12, cefpodoxime]	100 µM (≈ 42.7 µg/mL)	4.42 °C	–	7.744 µM (≈ 3.31 µg/mL)
–	CC1=C(C(=O)O)N2C(=O)[C@@H](NC(=O)[C@H](NC(=O)CCCC(=O)ON3C(=O)CCC3=O)c3ccccc3)[C@H]2SC1 [compound 6, (6R,7R)-7-[(2R)-2-{5-[(2,5-Dioxopyrrolidin-1-yl)oxy]-5-oxopentanamido}-2-phenylacetamido]-3-methyl-8-oxo-5-thia-1-azabicyclo[4.2.0]oct-2-ene-2-carboxylic acid]	200 µM (≈ 112 µg/mL)	3.21 °C	all of the analogues tested caused an increase in the Tm with PBP3	–
–	CC1=C(C(=O)O)N2C(=O)[C@@H](NC(=O)[C@H](NC(=O)CCCCN)c3ccccc3)[C@H]2SC1 [compound 10, (6R,7R)-7-[(2R)-2-(5-Aminopentanamido)-2-phenylacetamido]-3-methyl-8-oxo-5-thia-1-azabicyclo[4.2.0]oct-2-ene-2-carboxylic acid]	50 µM (≈ 22.3 µg/mL)	2.81 °C	all of the analogues tested caused an increase in the Tm with PBP3	–
75 equivalents	CC1=C(C(=O)O)N2C(=O)[C@@H](NC(=O)[C@H](N)c3ccccc3)[C@H]2SC1 [compound 1, cephalexin]	400 µM (≈ 139 µg/mL)	1.61 °C	–	94.91 µM (≈ 33 µg/mL)
